# Results published in patent US6861390B2, “Derivatives of UK-2A” (priority 2001, dated 2005).
# Experiments:
# [1] = tested on: Mycosphaerella graminicola (Septoria tritici, SEPTTR); test: microbe, parasite or virus in culture; format: cell-based; conditions: Zymoseptoria tritici, read-out: T11 SEPTTR in vitro Growth Inhibition
# [2] = tested on: Leptosphaeria nodorum (LEPTNO); test: Glume Blotch of Wheat, whole plant 24 Hour Protectant (T2); conditions: Parastagonospora nodorum; wheat (cultivar Yuma), sprayed at 100 ppm, inoculated after 24 hours; read-out: T2 LEPTNO in vivo 1 Day Protectant, control of fungal infection
# [3] = tested on: Phytophthora infestans (PHYTIN); test: microbe, parasite or virus in culture; format: cell-based; conditions: in Secale cereale, read-out: T8 PHYTIN in vitro Growth Inhibition
# [4] = tested on: Phytophthora infestans (PHYTIN); test: whole plant or invertebrate; conditions: in Solanum lycopersicum, 24 h, read-out: T3 PHYTIN in vivo 1 Day Protectant, control of fungal infection
# [5] = tested on: Erysiphe graminis (ERYSGT); test: Powdery Mildew of Wheat, whole plant 24 Hour Protectant (T1); conditions: Blumeria graminis, in Triticum aestivum, read-out: T1 ERYSGT in vivo 1 Day Protectant, control of fungal infection
# [6] = tested on: Rhizoctonia solani (RHIZSO); test: microbe, parasite or virus in culture; format: cell-based; conditions: read-out: T10 RHIZSO in vitro Growth Inhibition
# [7] = tested on: Septoria tritici (SEPTTR); test: Leaf Blotch of Wheat, whole plant 24 Hour Protectant (T6); conditions: Zymoseptoria tritici; wheat (cultivar Monon), sprayed at 100 ppm, inoculated after 24 hours; read-out: T6 SEPTTR in vivo 1 Day Protectant, control of fungal infection
# [8] = tested on: Puccinia recondita (PUCCRT); test: Brown Rust of Wheat, whole plant 24 Hour Protectant (T5); conditions: wheat (cultivar Yuma), sprayed at 100 ppm, inoculated after 24 hours, read-out: T5 PUCCRT in vivo 1 Day Protectant, control of fungal infection
# [9] = tested on: Ustilago maydis (USTIMA); test: microbe, parasite or virus in culture; format: cell-based; conditions: Mycosarcoma maydis, read-out: T12 USTIMA in vitro Growth Inhibition
# [10] = tested on: Stagonospora nodorum (Leptosphaeria nodorum, LEPTNO); test: microbe, parasite or virus in culture; format: cell-based; conditions: Parastagonospora nodorum, read-out: T7 LEPTNO in vitro Growth Inhibition
# [11] = tested on: Magnaporthe grisea (Pyricularia oryzae, PYRIOR); test: microbe, parasite or virus in culture; format: cell-based; conditions: read-out: T9 PYRIOR in vitro Growth Inhibition
SMILES,inhibition at 25 ppm [1] [%],pest or weed control at 100 ppm [2] [%],inhibition at 25 ppm [3] [%],pest or weed control at 100 ppm [4] [%],melting point [°C],pest or weed control at 100 ppm [5] [%],inhibition at 25 ppm [6] [%],pest or weed control at 100 ppm [7] [%],pest or weed control at 100 ppm [8] [%],inhibition at 25 ppm [9] [%],inhibition at 25 ppm [10] [%],inhibition at 25 ppm [11] [%]
CCOCOc1c(OC)ccnc1C(=O)N[C@H]1COC(=O)[C@H](Cc2ccccc2)[C@@H](OC(=O)C(C)C)[C@H](C)OC1=O [Compound 5],< 80,75 to 100,< 80,< 25,60 to 62,25 to 74,< 80,75 to 100,75 to 100,< 80,> 80,< 80
COc1ccnc(C(=O)N[C@H]2COC(=O)[C@H](Cc3ccccc3)[C@@H](OC(=O)C(C)C)[C@H](C)OC2=O)c1OCOC(C)C [Compound 7],< 80,75 to 100,< 80,< 25,124 to 127,25 to 74,< 80,75 to 100,75 to 100,> 80,> 80,< 80
COc1ccnc(C(=O)N[C@H]2COC(=O)[C@H](Cc3ccccc3)[C@@H](OC(=O)C(C)C)[C@H](C)OC2=O)c1OCOCC(C)C [Compound 9],> 80,75 to 100,< 80,< 25,133 to 136,< 25,> 80,25 to 74,75 to 100,> 80,> 80,< 80
COc1ccnc(C(=O)N[C@H]2COC(=O)[C@H](Cc3ccccc3)[C@@H](OC(=O)C(C)C)[C@H](C)OC2=O)c1OCO[Si](C)(C)C [Compound 13],< 80,75 to 100,< 80,< 25,50 to 52,< 25,> 80,75 to 100,75 to 100,< 80,> 80,< 80
COc1ccnc(C(=O)N[C@H]2COC(=O)[C@H](Cc3ccccc3)[C@@H](OC(=O)C(C)C)[C@H](C)OC2=O)c1OCOCCCl [Compound 14],< 80,75 to 100,< 80,< 25,140 to 143,< 25,< 80,75 to 100,75 to 100,< 80,> 80,< 80
COc1ccnc(C(=O)N[C@H]2COC(=O)[C@H](Cc3ccccc3)[C@@H](OC(=O)C(C)C)[C@H](C)OC2=O)c1OCOCCC#N [Compound 15],< 80,75 to 100,< 80,< 25,62 to 67,< 25,> 80,75 to 100,75 to 100,> 80,> 80,< 80
COc1ccnc(C(=O)N[C@H]2COC(=O)[C@H](Cc3ccccc3)[C@@H](OC(=O)C(C)C)[C@H](C)OC2=O)c1OCOC(C)=O [Compound 20],< 80,75 to 100,< 80,< 25,146 to 147,75 to 100,< 80,75 to 100,75 to 100,> 80,> 80,< 80
CCCC(=O)OCOc1c(OC)ccnc1C(=O)N[C@H]1COC(=O)[C@H](Cc2ccccc2)[C@@H](OC(=O)C(C)C)[C@H](C)OC1=O [Compound 22],< 80,75 to 100,< 80,< 25,102 to 105,75 to 100,< 80,75 to 100,75 to 100,< 80,> 80,< 80
COc1ccnc(C(=O)N[C@H]2COC(=O)[C@H](Cc3ccccc3)[C@@H](OC(=O)C(C)C)[C@H](C)OC2=O)c1OCOC(=O)C(C)(C)C [Compound 24],> 80,75 to 100,< 80,< 25,178 to 179,25 to 74,< 80,75 to 100,75 to 100,< 80,< 80,> 80
COc1ccnc(C(=O)N[C@H]2COC(=O)[C@H](Cc3ccccc3)[C@@H](OC(=O)C(C)C)[C@H](C)OC2=O)c1OC(C)OC(C)=O (some centres unmarked) [Compound 25],> 80,75 to 100,< 80,< 25,58 to 65,< 25,< 80,75 to 100,75 to 100,> 80,> 80,< 80
COc1ccnc(C(=O)N[C@H]2COC(=O)[C@H](Cc3ccccc3)[C@@H](OC(=O)C(C)C)[C@H](C)OC2=O)c1OCOC(=O)C1CC1 [Compound 26],< 80,75 to 100,< 80,< 25,152 to 153,25 to 74,< 80,75 to 100,75 to 100,< 80,> 80,< 80
COCCC(=O)OCOc1c(OC)ccnc1C(=O)N[C@H]1COC(=O)[C@H](Cc2ccccc2)[C@@H](OC(=O)C(C)C)[C@H](C)OC1=O [Compound 27],> 80,75 to 100,< 80,< 25,84 to 86,75 to 100,< 80,75 to 100,75 to 100,< 80,> 80,> 80
C=C(C)CO[C@H]1[C@H](C)OC(=O)[C@@H](NC(=O)c2nccc(OC)c2OCOC(C)=O)COC(=O)[C@@H]1Cc1ccccc1 [Compound 53],> 80,75 to 100,> 80,< 25,102 to 104,< 25,< 80,–,75 to 100,< 80,> 80,> 80
